Here are results for 17 compounds from patent publication US10125098B2, “Therapeutic compounds and methods of use thereof” (GENENTECH, INC., priority 2014, dated 2018).

Where two headings read alike, the source gives them in different places.

Series [1] addresses T1, hNav1.7 (Homo sapiens, UniProt Q15858).
T1 construct: expressed in transfected cells
The series is described as follows: Tritiated compound binding (LBA) to membranes from cells expressing hNav1.7 and the β1 subunit, competitive binding. Conditions: competitive binding vs 100 pM [3H]compound, 18 h, room temperature, membranes with hNav1.7 and β1 subunit. The procedure, abridged: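 Competitive displacement of 100 pM [3H]compound (tritiated methyl analogue of formula (I)) from hNav1.7/β1 membranes, 18 h at room temperature in NaCl/Tris pH 7.4 buffer containing 0.01% BSA. 1 μM unlabeled compound set non-specific binding. Bound label quantified by scintillation after filtration; 4-parameter fit gave IC50.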

Series [2] deals with T2, human NaV1.7 (Homo sapiens, UniProt Q15858).
T2 construct: permanently transfected with an expression vector containing the full-length cDNA coding for the desired human sodium channel α-subunit; expressed in transfected cells; host or cells: HEK-293
The series is described as follows: Patch voltage clamp electrophysiology assay (EP), NaV1.7. Type of series: cell-based. Conditions: HEK-293 cells stably expressing NaV1.7 with β1 subunit; whole-cell patch clamp, membrane potential −60 mV (inactivated state). The essentials: (§1)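 Percent block is the drop in sodium current after compound wash-on, measured by a test pulse following 20 ms at −150 mV from a −60 mV inactivating holding potential.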
In general terms: The patch-clamp technique gives a direct electrical read-out from membranes.

For series [3], the target named is T3, NaV1.5 (Homo sapiens, UniProt Q14524).
T3 construct: permanently transfected with an expression vector containing the full-length cDNA coding for the desired human sodium channel α-subunit; expressed in transfected cells; host or cells: HEK-293
Description: Patch voltage clamp electrophysiology assay (EP), NaV1.5. Type of series: cell-based. The conditions noted are these: HEK-293 cells stably expressing NaV1.5 with β1 subunit, whole-cell patch clamp, membrane potential −60 mV (inactivated state). The essentials:
as §1

The mark [4] stands for this setting: human, HEK-293 cells stably expressing human NaV1.5 with β1 subunit, pH 7.4.

T2 sequence (Q15858 1-1977 isoform Q15858-3): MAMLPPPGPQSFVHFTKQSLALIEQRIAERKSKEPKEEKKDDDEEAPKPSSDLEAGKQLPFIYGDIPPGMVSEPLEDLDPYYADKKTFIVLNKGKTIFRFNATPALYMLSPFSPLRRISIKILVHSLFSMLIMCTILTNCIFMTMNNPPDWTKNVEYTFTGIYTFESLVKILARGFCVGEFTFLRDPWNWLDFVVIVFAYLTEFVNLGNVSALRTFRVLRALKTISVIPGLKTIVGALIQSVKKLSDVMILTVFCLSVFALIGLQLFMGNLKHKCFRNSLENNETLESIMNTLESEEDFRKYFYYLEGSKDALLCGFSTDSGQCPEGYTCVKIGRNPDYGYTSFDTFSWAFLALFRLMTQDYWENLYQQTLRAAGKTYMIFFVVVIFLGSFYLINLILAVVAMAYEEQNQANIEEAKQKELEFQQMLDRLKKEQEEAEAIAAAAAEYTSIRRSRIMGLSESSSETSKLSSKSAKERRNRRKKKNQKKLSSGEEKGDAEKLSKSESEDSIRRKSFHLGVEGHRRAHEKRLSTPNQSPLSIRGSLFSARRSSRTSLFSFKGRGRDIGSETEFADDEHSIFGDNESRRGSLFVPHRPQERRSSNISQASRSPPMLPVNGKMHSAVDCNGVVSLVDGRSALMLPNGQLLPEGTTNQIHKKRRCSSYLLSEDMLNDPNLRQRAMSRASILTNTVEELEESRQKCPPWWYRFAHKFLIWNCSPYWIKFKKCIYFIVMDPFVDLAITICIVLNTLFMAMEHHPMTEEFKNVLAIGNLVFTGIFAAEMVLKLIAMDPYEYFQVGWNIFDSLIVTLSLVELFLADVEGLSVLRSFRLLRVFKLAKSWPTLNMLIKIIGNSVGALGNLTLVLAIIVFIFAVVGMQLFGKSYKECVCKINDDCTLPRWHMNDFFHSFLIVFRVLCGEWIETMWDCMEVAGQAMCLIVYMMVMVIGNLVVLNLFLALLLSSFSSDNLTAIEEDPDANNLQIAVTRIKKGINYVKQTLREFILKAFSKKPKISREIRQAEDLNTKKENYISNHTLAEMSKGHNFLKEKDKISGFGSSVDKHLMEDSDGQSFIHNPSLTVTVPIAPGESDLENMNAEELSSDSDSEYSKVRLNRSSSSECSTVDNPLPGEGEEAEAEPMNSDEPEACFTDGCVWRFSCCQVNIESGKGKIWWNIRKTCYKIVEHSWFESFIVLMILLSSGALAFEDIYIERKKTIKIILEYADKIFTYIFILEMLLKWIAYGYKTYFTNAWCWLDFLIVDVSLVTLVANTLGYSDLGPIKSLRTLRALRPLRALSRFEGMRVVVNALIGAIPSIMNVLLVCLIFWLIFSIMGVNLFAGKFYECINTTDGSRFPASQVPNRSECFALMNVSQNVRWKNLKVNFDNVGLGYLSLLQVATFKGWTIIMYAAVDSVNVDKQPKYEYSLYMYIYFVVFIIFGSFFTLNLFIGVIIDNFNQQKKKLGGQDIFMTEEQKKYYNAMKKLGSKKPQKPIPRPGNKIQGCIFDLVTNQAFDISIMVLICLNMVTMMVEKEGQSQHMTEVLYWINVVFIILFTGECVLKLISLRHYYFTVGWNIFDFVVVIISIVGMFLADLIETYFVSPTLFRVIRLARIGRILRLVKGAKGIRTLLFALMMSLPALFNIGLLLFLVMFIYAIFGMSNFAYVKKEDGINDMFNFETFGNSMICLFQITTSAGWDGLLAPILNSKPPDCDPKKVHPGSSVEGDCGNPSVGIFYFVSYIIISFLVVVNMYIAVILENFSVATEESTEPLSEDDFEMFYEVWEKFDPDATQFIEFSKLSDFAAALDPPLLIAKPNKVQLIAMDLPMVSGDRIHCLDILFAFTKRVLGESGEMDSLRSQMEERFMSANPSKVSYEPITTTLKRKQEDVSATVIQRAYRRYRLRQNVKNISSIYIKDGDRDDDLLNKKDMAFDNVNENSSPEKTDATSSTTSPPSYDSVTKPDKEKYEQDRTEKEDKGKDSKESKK
T2 sequence (Q07699 19-218 partner): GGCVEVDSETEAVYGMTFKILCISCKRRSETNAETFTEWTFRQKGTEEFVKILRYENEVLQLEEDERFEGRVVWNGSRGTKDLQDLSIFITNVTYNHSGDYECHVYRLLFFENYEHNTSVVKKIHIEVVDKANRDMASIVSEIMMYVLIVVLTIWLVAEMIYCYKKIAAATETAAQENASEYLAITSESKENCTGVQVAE
T1 sequence (Q15858 1-1977 isoform Q15858-3): as the sequence (Q15858 1-1977 isoform Q15858-3) above
T1 sequence (Q07699 19-218 partner): as the sequence (Q07699 19-218 partner) above
T3 sequence (Q14524 whole entry): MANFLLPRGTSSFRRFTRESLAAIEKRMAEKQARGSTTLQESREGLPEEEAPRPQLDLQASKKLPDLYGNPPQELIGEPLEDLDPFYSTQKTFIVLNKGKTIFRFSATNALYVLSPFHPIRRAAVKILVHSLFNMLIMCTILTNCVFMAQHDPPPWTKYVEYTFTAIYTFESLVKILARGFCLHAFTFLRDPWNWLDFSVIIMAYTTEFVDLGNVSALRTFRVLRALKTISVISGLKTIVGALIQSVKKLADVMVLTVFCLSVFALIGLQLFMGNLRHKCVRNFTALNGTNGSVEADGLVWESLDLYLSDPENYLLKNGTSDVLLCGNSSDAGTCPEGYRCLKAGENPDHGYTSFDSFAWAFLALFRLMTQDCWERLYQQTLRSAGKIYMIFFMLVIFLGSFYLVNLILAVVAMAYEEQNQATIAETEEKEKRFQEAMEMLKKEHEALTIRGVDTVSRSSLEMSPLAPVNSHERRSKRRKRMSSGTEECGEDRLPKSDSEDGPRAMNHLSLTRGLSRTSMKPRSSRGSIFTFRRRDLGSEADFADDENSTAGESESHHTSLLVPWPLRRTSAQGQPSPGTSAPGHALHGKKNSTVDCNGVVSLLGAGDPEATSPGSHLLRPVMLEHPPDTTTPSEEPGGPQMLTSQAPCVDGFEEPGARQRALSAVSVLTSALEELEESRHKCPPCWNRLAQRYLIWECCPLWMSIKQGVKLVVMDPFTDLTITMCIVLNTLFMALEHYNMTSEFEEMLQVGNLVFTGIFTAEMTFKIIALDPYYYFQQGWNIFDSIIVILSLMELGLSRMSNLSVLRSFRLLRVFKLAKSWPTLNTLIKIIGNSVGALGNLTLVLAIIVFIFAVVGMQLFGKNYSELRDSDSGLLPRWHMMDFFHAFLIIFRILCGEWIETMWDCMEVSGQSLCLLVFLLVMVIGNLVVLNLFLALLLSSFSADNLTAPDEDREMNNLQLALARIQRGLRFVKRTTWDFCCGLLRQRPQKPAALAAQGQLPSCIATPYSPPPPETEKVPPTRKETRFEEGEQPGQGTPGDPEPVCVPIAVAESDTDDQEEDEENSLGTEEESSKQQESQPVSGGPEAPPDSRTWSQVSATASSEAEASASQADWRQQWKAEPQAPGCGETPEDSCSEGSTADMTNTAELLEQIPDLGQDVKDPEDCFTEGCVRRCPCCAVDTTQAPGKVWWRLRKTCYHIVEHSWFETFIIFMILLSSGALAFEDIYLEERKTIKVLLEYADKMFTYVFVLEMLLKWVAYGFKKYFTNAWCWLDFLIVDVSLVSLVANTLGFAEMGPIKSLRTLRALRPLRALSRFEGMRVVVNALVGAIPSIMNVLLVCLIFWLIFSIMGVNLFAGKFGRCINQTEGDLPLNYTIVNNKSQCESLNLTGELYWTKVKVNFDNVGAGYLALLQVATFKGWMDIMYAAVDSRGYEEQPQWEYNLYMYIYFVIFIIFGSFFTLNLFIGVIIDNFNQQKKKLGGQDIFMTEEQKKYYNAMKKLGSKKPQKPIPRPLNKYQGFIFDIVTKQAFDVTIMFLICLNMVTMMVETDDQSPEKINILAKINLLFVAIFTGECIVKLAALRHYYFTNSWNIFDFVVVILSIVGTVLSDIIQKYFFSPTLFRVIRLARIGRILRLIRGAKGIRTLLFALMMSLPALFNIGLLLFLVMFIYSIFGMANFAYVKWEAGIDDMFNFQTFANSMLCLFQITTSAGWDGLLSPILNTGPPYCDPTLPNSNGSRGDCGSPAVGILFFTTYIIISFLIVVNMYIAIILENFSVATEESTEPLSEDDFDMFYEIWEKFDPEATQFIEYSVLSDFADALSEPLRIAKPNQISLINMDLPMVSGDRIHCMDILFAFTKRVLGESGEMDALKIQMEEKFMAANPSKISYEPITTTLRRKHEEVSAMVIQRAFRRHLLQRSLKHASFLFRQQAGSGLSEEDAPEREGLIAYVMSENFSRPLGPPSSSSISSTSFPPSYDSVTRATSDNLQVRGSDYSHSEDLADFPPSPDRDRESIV

With `O=C(O)[C@@H]1C[C@@H](F)CN1C(=O)c1cc(C2CC2)c(OCC2(F)CCN(Cc3ccc(C(F)(F)F)cc3Cl)CC2)cc1F` [Example 127, (2S, 4R)-1-(4-((1-(2-chloro-4-(trifluoromethyl)benzyl)-4-fluoropiperidin-4-yl)methoxy)-5-cyclopropyl-2-fluorobenzoyl)-4-fluoropyrrolidine-2-carboxylic acid], the results for the IC50 in series [1], in series [2] and in series [3] (read-out: Nav1.5) were 120 nM, 400 nM and 13000 nM, respectively.
Consider `O=C(O)[C@@H]1C[C@@H](F)CN1C(=O)c1cc(C2CC2)c(OCC2(F)CCN(Cc3ccc(F)c(Cl)c3)CC2)cc1F` [Example 128, (2S,4R)-1-(4-((1-(3-chloro-4-fluorobenzyl)-4-fluoropiperidin-4-yl)methoxy)-5-cyclopropyl-2-fluorobenzoyl)-4-fluoropyrrolidine-2-carboxylic acid], for which the IC50 in series [1] was 87 nM; in series [2], 710 nM; in series [3] (setting [4]) it was not below 30000 nM.
Turning to `CC(c1cc(Cl)cc(Cl)c1)N1CCC(F)(COc2cc(F)c(C(=O)N3C[C@H](F)C[C@H]3C(=O)O)cc2C2CC2)CC1` (stereo partly drawn) [Example 129, (2S,4R)-1-(5-cyclopropyl-4-((1-(1-(3,5-dichlorophenyl)ethyl)-4-fluoropiperidin-4-yl)methoxy)-2-fluorobenzoyl)-4-fluoropyrrolidine-2-carboxylic acid], the IC50 was 22 nM in series [1], 160 nM in series [2] and 9400 nM in series [3] (read-out: Nav1.5).
`COC[C@H](c1cc(Cl)cc(Cl)c1)N1CCC(COc2cc(F)c(C(=O)N3C[C@H](F)C[C@H]3C(=O)O)cc2C2CC2)CC1` [Example 130, (2S,4R)-1-(5-cyclopropyl-4-((1-((S)-1-(3,5-dichlorophenyl)-2-methoxyethyl)piperidin-4-yl)methoxy)-2-fluorobenzoyl)-4-fluoropyrrolidine-2-carboxylic acid]: the results for the IC50 in series [1], in series [2] and in series [3] (read-out: Nav1.5) were 27 nM, 160 nM and 14000 nM, respectively.
In the same order, the values of `COC[C@@H](c1cc(Cl)cc(Cl)c1)N1CCC(COc2cc(F)c(C(=O)N3C[C@H](F)C[C@H]3C(=O)O)cc2C2CC2)CC1` [Example 131, (2S,4R)-1-(5-cyclopropyl-4-((1-((R)-1-(3,5-dichlorophenyl)-2-methoxyethyl)piperidin-4-yl)methoxy)-2-fluorobenzoyl)-4-fluoropyrrolidine-2-carboxylic acid] are 28 nM, 250 nM and 18000 nM.
As to `O=C(O)[C@@H]1COC(=O)N1C(=O)c1cc(C2CC2)c(OCC23CC4CC(CC(C4)C2)C3)cc1F` [Example 133, (S)-3-(4-(adamantan-1-ylmethoxy)-5-cyclopropyl-2-fluorobenzoyl)-2-oxooxazolidine-4-carboxylic acid], the figures for the IC50 in series [1], in series [2] and in series [3] (read-out: Nav1.5) were 1400 nM, 18000 nM and 9400 nM, respectively.
For `O=C(O)[C@@H]1CCCN1C(=O)c1cc(C2CC2)c(COc2cc(Cl)cc(Cl)c2)s1` [Example 134, (S)-1-(4-cyclopropyl-5-((3,5-dichlorophenoxy)methyl)thiophene-2-carbonyl)pyrrolidine-2-carboxylic acid], the IC50 was 72 nM in series [1], 630 nM in series [2] and 7100 nM in series [3] (read-out: Nav1.5).
As for `C[C@]1(COc2cc(F)c(C(=O)N3CCC[C@H]3C(=O)O)cc2C2CC2)CCN(c2cc(C(F)(F)F)c(Cl)cn2)C1` [Example 135, (S)-1-(4-(((S)-1-(5-chloro-4-(trifluoromethyl)pyridin-2-yl)-3-methylpyrrolidin-3-yl)methoxy)-5-cyclopropyl-2-fluorobenzoyl)pyrrolidine-2-carboxylic acid], the values for the IC50 in series [1], in series [2] and in series [3] (setting [4]) were 390 nM, 2600 nM and not below 30000 nM, respectively.
For `C[C@@]1(COc2cc(F)c(C(=O)N3CCC[C@H]3C(=O)O)cc2C2CC2)CCN(c2cc(C(F)(F)F)c(Cl)cn2)C1` [Example 136, (S)-1-(4-(((R)-1-(5-chloro-4-(trifluoromethyl)pyridin-2-yl)-3-methylpyrrolidin-3-yl)methoxy)-5-cyclopropyl-2-fluorobenzoyl)pyrrolidine-2-carboxylic acid], the IC50 in series [1] was 110 nM; in series [2], 1100 nM; in series [3] (setting [4]), not below 30000 nM.
Take `O=C(O)[C@@H]1CCCN1C(=O)c1cc(C2CC2)c(OC2CN(C(c3ccccc3)c3ccccc3)C2)cc1F` [Example 141, (S)-1-(4-(1-benzhydrylazetidin-3-yloxy)-5-cyclopropyl-2-fluorobenzoyl)pyrrolidine-2-carboxylic acid]: the results for the IC50 in series [1], in series [2] and in series [3] (setting [4]) were 490 nM, 6100 nM and not below 30000 nM, respectively.
For the compound `C[C@@H]1SCN(C(=O)c2cc(C3CC3)c(OCC34CC5CC(CC(C5)C3)C4)cc2F)[C@@H]1C(=O)O` [Example 142a, (4R,5S)-3-[4-(1-adamantylmethoxy)-5-cyclopropyl-2-fluoro-benzoyl]-5-methyl-thiazolidine-4-carboxylic acid], the IC50 was found to be 250 nM in series [1], 1500 nM in series [2] and 17000 nM in series [3] (read-out: Nav1.5).
As for `C[C@@H]1SCN(C(=O)c2cc(C3CC3)c(OCC34CC5CC(CC(C5)C3)C4)cc2F)[C@H]1C(=O)O` [Example 142b, (4S,5S)-3-[4-(1-adamantylmethoxy)-5-cyclopropyl-2-fluoro-benzoyl]-5-methyl-thiazolidine-4-carboxylic acid], the IC50 in series [1] was 760 nM; in series [2], 3000 nM; in series [3] (read-out: Nav1.5), 15000 nM.
As for `O=C(O)[C@@H]1CS(=O)(=O)CN1C(=O)c1cc(C2CC2)c(OCC23CC4CC(CC(C4)C2)C3)cc1F` [Example 143, (4R)-3-[4-(1-adamantylmethoxy)-5-cyclopropyl-2-fluoro-benzoyl]-1,1-dioxo-1,3-thiazolidine-4-carboxylic acid], the IC50 in series [1] came to 170 nM; in series [2] it was 1200 nM; in series [3] (read-out: Nav1.5), 21000 nM.
As to `N#C[C@H]1C[C@@H](C(=O)O)N(C(=O)c2cc(C3CC3)c(OCC34CC5CC(CC(C5)C3)C4)cc2F)C1` [Example 144, (2S,4S)-1-[4-(1-adamantylmethoxy)-5-cyclopropyl-2-fluoro-benzoyl]-4-cyano-pyrrolidine-2-carboxylic acid], the IC50 in series [1] is 870 nM; in series [2], 3500 nM; in series [3] (setting [4]) it was not below 30000 nM.
Regarding `O=C(O)[C@@H]1CC(F)(F)CN1C(=O)c1cc(C2CC2)c(OCC23CC4CC(CC(C4)C2)C3)cc1F` [Example 145, (2S)-1-[4-(1-adamantylmethoxy)-5-cyclopropyl-2-fluoro-benzoyl]-4,4-difluoro-pyrrolidine-2-carboxylic acid], the values for the IC50 in series [1], in series [2] and in series [3] (read-out: Nav1.5) were 35 nM, 640 nM and 16000 nM, respectively.
In the same order, the values of `O=C(O)[C@@H]1[C@H]2CC[C@H](C2)N1C(=O)c1cc(C2CC2)c(OCC23CC4CC(CC(C4)C2)C3)cc1F` [Example 146, (1S,2S,4R)-3-[4-(1-adamantylmethoxy)-5-cyclopropyl-2-fluoro-benzoyl]-3-azabicyclo[2.2.1]heptane-2-carboxylic acid] are 180 nM, 1500 nM and 8400 nM.
In the same order, the values of `CC1(C)CCC(C(=O)O)N1C(=O)c1cc(C2CC2)c(OCC23CC4CC(CC(C4)C2)C3)cc1F` (stereo not drawn) [Example 147, 1-[4-(1-adamantylmethoxy)-5-cyclopropyl-2-fluoro-benzoyl]-5,5-dimethyl-pyrrolidine-2-carboxylic acid] are 260 nM, 2100 nM and 14000 nM.
